Assay results published in patent US20200308171A1, “BIFUNCTIONAL INHIBITORS WITH EGFR HAVING A E3 UBIQUITIN LIGASE MOIETY” (Hoffmann-La Roche Inc., priority 2017, published 2020).

molecular target: T1, EGFR T790M/L858R/C797S (Homo sapiens, UniProt P00533, C797S/L858R/T790M); experiment: EGFR Degradation Assay (Cellular), FRET quantification of total EGFR; type: cell-based; details: BaF3 EGFR mutant cell line (EGFR T790M/L858R/C797S); 4-hour incubation; total EGFR FRET kit; top concentration 1 μM, 11 points; read-out: IC50 [nM] mutant EGFR degradation
T1 construct: expressed in transfected cells; host or cells: BaF3 (murine pro-B) cells stably transduced with pCDH lentiviral vector, PGK promoter
T1 sequence (P00533 25-1210 T790M/C797S/L858R): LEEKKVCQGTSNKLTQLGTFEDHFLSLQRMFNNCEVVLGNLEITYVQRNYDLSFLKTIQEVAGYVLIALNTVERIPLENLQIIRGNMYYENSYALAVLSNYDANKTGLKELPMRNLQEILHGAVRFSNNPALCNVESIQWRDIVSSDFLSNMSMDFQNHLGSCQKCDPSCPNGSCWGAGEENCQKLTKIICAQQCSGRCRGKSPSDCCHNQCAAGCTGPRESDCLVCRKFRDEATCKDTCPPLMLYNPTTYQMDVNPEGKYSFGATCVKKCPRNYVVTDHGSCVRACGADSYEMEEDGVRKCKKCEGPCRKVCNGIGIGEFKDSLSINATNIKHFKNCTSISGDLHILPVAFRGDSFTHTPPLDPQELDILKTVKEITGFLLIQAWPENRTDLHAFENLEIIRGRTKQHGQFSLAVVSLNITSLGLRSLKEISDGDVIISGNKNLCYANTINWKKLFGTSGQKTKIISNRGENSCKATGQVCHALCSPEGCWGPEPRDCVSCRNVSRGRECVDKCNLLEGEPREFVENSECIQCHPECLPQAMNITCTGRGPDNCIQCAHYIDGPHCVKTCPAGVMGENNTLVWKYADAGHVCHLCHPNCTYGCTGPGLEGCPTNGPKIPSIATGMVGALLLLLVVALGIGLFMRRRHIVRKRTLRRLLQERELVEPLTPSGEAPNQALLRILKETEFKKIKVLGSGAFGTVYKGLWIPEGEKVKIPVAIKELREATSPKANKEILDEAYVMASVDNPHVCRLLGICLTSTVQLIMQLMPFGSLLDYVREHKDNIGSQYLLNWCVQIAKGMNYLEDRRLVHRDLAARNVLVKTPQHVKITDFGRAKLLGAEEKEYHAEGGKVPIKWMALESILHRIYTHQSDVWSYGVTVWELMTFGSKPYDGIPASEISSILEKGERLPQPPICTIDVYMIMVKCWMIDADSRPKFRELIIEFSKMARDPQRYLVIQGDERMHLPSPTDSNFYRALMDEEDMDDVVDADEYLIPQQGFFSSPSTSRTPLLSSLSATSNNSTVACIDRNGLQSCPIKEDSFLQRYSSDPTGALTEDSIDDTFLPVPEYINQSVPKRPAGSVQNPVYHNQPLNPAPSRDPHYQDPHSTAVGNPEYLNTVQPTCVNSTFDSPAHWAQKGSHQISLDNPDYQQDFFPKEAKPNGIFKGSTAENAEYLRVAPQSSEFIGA
Description: EGFR Degradation Assay (Cellular)
The BaF3 parental line was purchased from DSMZ and grown in RPMI media supplemented with 10% FBS and 10 ng/mL interleukin 3 (IL-3) (Thermo Fisher Scientific). EGFR mutants ([…]) were cloned into the pCDH lentiviral vector (SystemBio) under the control of a PGK promoter and confirmed by DNA sequencing. The resulting gene expression vector for each mutant was mixed with packaging vectors and cotransfected into 2×10E6 HEK293T cells (ATCC) in 10 mL of DMEM media to generate lentiviral particles according to the manufacturers protocol (Origene).
Three days post-transfection, the viral supernatant was harvested and filtered. In one well of a 12-well plate, 0.5 mL of viral supernatant was added to 2E6 Ba/F3 cells contained in 1.5 mL of RPMI media including 10% FBS, 10 ng/mL IL-3, and 5 μg/mL polybrene (Invitrogen). The plate was centrifuged at 2,000 rpm for 1 hour at room temperature and infected cells were kept in a tissue culture incubator overnight at 37° C. The cells were washed once in fresh BaF3 media and reseeded at 0.5E6 cells/well of a 12-well plate in media supplemented with 0.5 μg/mL puromycin. The cells were maintained in this media for 3 weeks. IL-3-independent, EGFR mutant transformed cells were routinely maintained in RPMI medium supplemented with 10% FBS.
RPMI 1640 no-phenol red medium and fetal bovine serum (FBS) were purchased from Gibco (Grand Island, N.Y., USA). EGFR total kit and EGFR phospho-Y1068 kit were purchased from Cisbio (Bedford, Mass., USA). BaF3 EGFR mutant cell lines (EGFR T790M/L858R/C797S) cell line was generated in house, according to the protocol reported above. Cell culture flasks and 384-well microplates were acquired from VWR (Radnor, Pa., USA).
EGFR degradation was determined based on quantification of FRET signal using EGFR total kit. The FRET signal detected correlates with total EGFR protein level in cells. Briefly, test compounds were added to the 384-well plate from a top concentration of 1 μM with 11 points, half log titration in quadruplicates. Then, BaF3 EGFR mutant cell lines (EGFR T790M/L858R/C797S) were added into 384-well plates at a cell density of 10000 cells per well. The plates were kept at 37° C. with 5% CO2 for 4 hours. After 4-hour incubation, 4× lysis buffer was added to the cells, and then microplate was agitated on plate shaker at 500 rpm for 30 minutes at room temperature. Next, total EGFR antibody solution was added to the cells and the cells were incubated for another 4 hours at room temperature. Finally, FRET signal was acquired on EnVision™ Multilabel Reader (PerkinElmer, Santa Clara, Calif., USA). The cells treated in the absence of the test compound were the negative control and lysis buffer with antibody solution only were the positive control.

SMILES | DC50 [nM]
CO[C@H]1CCN(c2nccc(Nc3cc4c(cn3)c(C(=O)NC3CCN(C(=O)N5CCN(CCCCNc6cccc7c6C(=O)N(C6CCC(=O)NC6=O)C7=O)CC5)CC3)cn4C3CCCC3)n2)C[C@H]1F (mixture of isomers) [Example 13, 1-Cyclopentyl-N-[1-[4-[4-[[2-[(3RS)-2,6-dioxo-3-piperidyl]-1,3-dioxo-isoindolin-4-yl]amino]butyl]piperazine-1-carbonyl]-4-piperidyl]-6-[[2-[(3R,4S)-3-fluoro-4-methoxy-1-piperidyl]pyrimidin-4-yl]amino]pyrrolo[3,2-c]pyridine-3-carboxamide] | 30
CO[C@H]1CCN(c2nccc(Nc3cc4c(cn3)c(C(=O)NC3CCN(CCC[C@H]5CC[C@H](Nc6cccc7c6C(=O)N(C6CCC(=O)NC6=O)C7=O)CC5)CC3)cn4C(C)C)n2)C[C@H]1F (mixture of isomers) [Example 20, N-[1-[3-[4-[[2-[(3RS)-2,6-Dioxo-3-piperidyl]-1,3-dioxo-isoindolin-4-yl]amino]cyclohexyl]propyl]-4-piperidyl]-6-[[2-[(3R,4S)-3-fluoro-4-methoxy-l-piperidyl]pyrimidin-4-yl]amino]-1-isopropyl-pyrrolo[3,2-c]pyridine-3-carboxamide] | 15
CO[C@H]1CCN(c2nccc(Nc3cc4c(cn3)c(C(=O)NC3CCN(CCCCC5CCN(c6ccc7c(c6)C(=O)N(C6CCC(=O)NC6=O)C7=O)CC5)CC3)cn4C(C)C)n2)C[C@H]1F (mixture of isomers) [Example 19, N-[1-[4-[1-[2-[(3RS)-2,6-Dioxo-3-piperidyl]-1,3-dioxo-isoindolin-5-yl]-4-piperidyl]butyl]-4-piperidyl]-6-[[2-[(3R,4S)(3S,4R)-3-fluoro-4-methoxy-1-piperidyl]pyrimidin-4-yl]amino]-1-isopropyl-pyrrolo[3,2-c]pyridine-3-carboxamide] | 73
CO[C@H]1CCN(c2nccc(Nc3cc4c(cn3)c(C(=O)NC3CCN(CCCCCCNc5cccc6c5C(=O)N(C5CCC(=O)NC5=O)C6=O)CC3)cn4C(C)C)n2)C[C@H]1F (mixture of isomers) [Example 5, N-[1-[6-[[2-[(3RS)-2,6-Dioxo-3-piperidyl]-1,3-dioxo-isoindolin-4-yl]amino]hexyl]-4-piperidyl]-6-[[2-[(3R,4S)(3S,4R)-3-fluoro-4-methoxy-1-piperidyl]pyrimidin-4-yl]amino]-1-isopropyl-pyrrolo[3,2-c]pyridine-3-carboxamide] | 28
CO[C@H]1CCN(c2nccc(Nc3cc4c(cn3)c(C(=O)NC3CCN(CCCCNc5cccc6c5C(=O)N(C5CCC(=O)NC5=O)C6=O)CC3)cn4C(C)C)n2)C[C@H]1F (mixture of isomers) [Example 14, N-[1-[4-[[2-[(3RS)-2,6-Dioxo-3-piperidyl]-1,3-dioxo-isoindolin-4-yl]amino]butyl]-4-piperidyl]-6-[[2-[(3R,4S)-3-fluoro-4-methoxy-1-piperidyl]pyrimidin-4-yl]amino]-1-isopropyl-pyrrolo[3,2-c]pyridine-3-carboxamide] | 41
CO[C@H]1CCN(c2nccc(Nc3cc4c(cn3)c(C(=O)NC3CCN(CCCOC5CN(c6cccc7c6C(=O)N(C6CCC(=O)NC6=O)C7=O)C5)CC3)cn4C(C)C)n2)C[C@H]1F (mixture of isomers) [Example 22, N-[1-[3-[1-[2-[(3RS)-2,6-Dioxo-3-piperidyl]-1,3-dioxo-isoindolin-4-yl]azetidin-3-yl]oxypropyl]-4-piperidyl]-6-[[2-[(3R,4S)-3-fluoro-4-methoxy-l-piperidyl]pyrimidin-4-yl]amino]-1-isopropyl-pyrrolo[3,2-c]pyridine-3-carboxamide] | 26
CO[C@H]1CCN(c2nccc(Nc3cc4c(cn3)c(C(=O)NC3CCN(CCCCCNc5cccc6c5C(=O)N(C5CCC(=O)NC5=O)C6=O)CC3)cn4C(C)C)n2)C[C@H]1F (mixture of isomers) [Example 9, N-[1-[5-[[2-[(3RS)-2,6-Dioxo-3-piperidyl]-1,3-dioxo-isoindolin-4-yl]amino]pentyl]-4-piperidyl]-6-[[2-[(3R,4S)-3-fluoro-4-methoxy-1-piperidyl]pyrimidin-4-yl]amino]-1-isopropyl-pyrrolo[3,2-c]pyridine-3-carboxamide] | 26
CO[C@@H]1CCN(c2nccc(Nc3cc4c(cn3)c(C(=O)NC3CCN(CCCCCCNc5cccc6c5C(=O)N(C5CCC(=O)NC5=O)C6=O)CC3)cn4C(C)C)n2)C[C@@H]1F (mixture of isomers) [Example 8, N-[1-[6-[[2-[(3RS)-2,6-Dioxo-3-piperidyl]-1,3-dioxo-isoindolin-4-yl]amino]hexyl]-4-piperidyl]-6-[[2-[(3S,4R)-3-fluoro-4-methoxy-1-piperidyl]pyrimidin-4-yl]amino]-1-isopropyl-pyrrolo[3,2-c]pyridine-3-carboxamide] | 46
COC1CCN(c2nccc(Nc3cc4c(cn3)c(C(=O)NC3CCN(C(=O)CCCCCNc5cccc6c5C(=O)N(C5CCC(=O)NC5=O)C6=O)CC3)cn4C(C)C)n2)CC1 (racemic) [Example 1, N-[1-[6-[[2-[(3RS)-2,6-Dioxo-3-piperidyl]-1,3-dioxo-isoindolin-4-yl]amino]hexanoyl]-4-piperidyl]-1-isopropyl-6-[[2-(4-methoxy-1-piperidyl)pyrimidin-4-yl]amino]pyrrolo[3,2-c]pyridine-3-carboxamide] | 59
CO[C@H]1CCN(c2nccc(Nc3cc4c(cn3)c(C(=O)NC3CCN(CCC5CCN(c6ccc7c(c6)C(=O)N(C6CCC(=O)NC6=O)C7=O)CC5)CC3)cn4C(C)C)n2)C[C@H]1F (mixture of isomers) [Example 16, N-[1-[2-[1-[2-[(3RS)-2,6-Dioxo-3-piperidyl]-1,3-dioxo-isoindolin-5-yl]-4-piperidyl]ethyl]-4-piperidyl]-6-[[2-[(3R,4S)-3-fluoro-4-methoxy-1-piperidyl]pyrimidin-4-yl]amino]-1-isopropyl-pyrrolo[3,2-c]pyridine-3-carboxamide] | 28
CO[C@H]1CCN(c2nccc(Nc3cc4c(cn3)c(C(=O)NC3CCN(CCCC5CN(c6cccc7c6C(=O)N(C6CCC(=O)NC6=O)C7=O)C5)CC3)cn4C(C)C)n2)C[C@H]1F (mixture of isomers) [Example 24, N-[1-[3-[1-[2-[(3RS)-2,6-Dioxo-3-piperidyl]-1,3-dioxo-isoindolin-4-yl]azetidin-3-yl]propyl]-4-piperidyl]-6-[[2-[(3R,4S)-3-fluoro-4-methoxy-1-piperidyl]pyrimidin-4-yl]amino]-1-isopropyl-pyrrolo[3,2-c]pyridine-3-carboxamide] | 5
CO[C@H]1CCN(c2nccc(Nc3cc4c(cn3)c(C(=O)NC3CCN(CCCOC5CCN(c6cccc7c6C(=O)N(C6CCC(=O)NC6=O)C7=O)CC5)CC3)cn4C(C)C)n2)C[C@H]1F (mixture of isomers) [Example 17, N-[1-[3-[[1-[2-[(3RS)-2,6-Dioxo-3-piperidyl]-1,3-dioxo-isoindolin-4-yl]-4-piperidyl]oxy]propyl]-4-piperidyl]-6-[[2-[(3R,4S)-3-fluoro-4-methoxy-1-piperidyl]pyrimidin-4-yl]amino]-1-isopropyl-pyrrolo[3,2-c]pyridine-3-carboxamide] | 74
COC1CCN(c2nccc(Nc3cc4c(cn3)c(C(=O)NC3CCN(CCCCCCNc5cccc6c5C(=O)N(C5CCC(=O)NC5=O)C6=O)CC3)cn4C3CCCC3)n2)CC1 (racemic) [Example 4, 1-Cyclopentyl-N-[1-[6-[[2-[(3RS)-2,6-dioxo-3-piperidyl]-1,3-dioxo-isoindolin-4-yl]amino]hexyl]-4-piperidyl]-6-[[2-(4-methoxy-1-piperidyl)pyrimidin-4-yl]amino]pyrrolo[3,2-c]pyridine-3-carboxamide] | 38
COC1CCN(c2nccc(Nc3cc4c(cn3)c(C(=O)NC3CCN(CCCCCCNc5cccc6c5C(=O)N(C5CCC(=O)NC5=O)C6=O)CC3)cn4C(C)C)n2)CC1(F)F (racemic) [Example 3, 6-[[2-[(4RS)-3,3-Difluoro-4-methoxy-1-piperidyl]pyrimidin-4-yl]amino]-N-[1-[6-[[2-[(3RS)-2,6-dioxo-3-piperidyl]-1,3-dioxo-isoindolin-4-yl]amino]hexyl]-4-piperidyl]-1-isopropyl-pyrrolo[3,2-c]pyridine-3-carboxamide] | 44
